# Like-named read-outs stand apart in the source and are kept apart here.
# Assays:
# [1] = system: Mycobacterium bovis BCG (recombinant strain); test: microbe, parasite or virus in culture; assay type: cell-based; conditions: 6 days 37° C.; for MIC: Mycobacterium tuberculosis variant bovis BCG, BCG, 144 h, read-out: MIC, column A, 3(S) compounds
# [2] = system: Clostridium difficile ATCC 17857; test: In vitro inhibition of Clostridium difficile (Oxyrase broth microdilution MIC); assay type: cell-based; conditions: Clostridioides difficile, ATCC17857; Clostridium difficile ATCC 17857, Oxyrase broth; read-out: MIC, column D, 3(S) compounds
# Cryptosporidium parvum = test: Inhibition of Cryptosporidium parvum (ELISA, infected HCT-8 monolayers); assay type: cell-based; conditions: for inhibition at 25 µg/mL / inhibition at 50 µg/mL / inhibition at 100 µg/mL / inhibition at 200 µg/mL: Cryptosporidium parvum, HCT-8, read-out: Percent Inhibition of C. parvum; for inhibition at 25 µg/mL / inhibition at 50 µg/mL / inhibition at 100 µg/mL / inhibition at 200 µg/mL / Percent Inhibition of C. parvum: 48 h
# Method: Susceptibility testing against Cryptosporidium was performed according to published procedures (K. Woods, M. Nesterenko, S. Upton, "Development of a microtiter ELISA to quantify development of Cryptosporidium parvum in vitro," FEMS Microbiology Letters, 128:89-94 (1995).
# Compounds were solubilized to a concentration of 100 mg/mL in 100% DMSO. DMSO solutions of test compounds were added to the test wells of a microplate at a volume that produced a final concentration of DMSO of 0.2%. Monolayers of human ileocecal adenocarcinoma cells (HCT-8) were prepared by growth in RPMI 1640 medium in 96-Well tissue culture trays for 24 h. Oocysts of C. parvum were allowed to excyst in 10% bleach for 10 min prior to use. Monolayers were then infected with 2-3×10^4 oocysts/well and incubated in the presence or absence of compound for 48 h at 35° C. in 5% CO2 and 95% humidity. Background consisted of wells containing killed oocysts (freeze thaw cycle following 30 sec exposure to liquid nitrogen). Growth control wells were infected with 2-3×10^4 oocysts/well in the absence of test compounds. At the end of incubation, wells were washed and fixed by adding 100 uL of 4% formalin in phosphate buffered saline (pH 7.3) per well for 2 h. After blocking with 1% bovine serum albumin, and 0.002% Tween 20, 50 uL of rat anti-Cryptosporidium membrane protein antiserum was added. After 30 min, wells were washed in PBS and 50 uL of secondary antibody (goat anti-rat antibody conjugated with horseradish peroxidase) was added. After 20-30 min, wells were washed again in PBS and 50 uL of 3,3',5,5'-tetramethylbenzidine solution was added. Plates were allowed to develop for 10-15 min and the optical density was read at 630 nm. Percent inhibition was calculated by comparing the optical density of the drug treated group to that of the untreated control.
# Helicobacter pylori = test: In vitro inhibition of Helicobacter pylori (broth microdilution MIC); conditions: Helicobacter pylori
# [3] = system: Mycobacterium bovis (rBCG-lux); test: microbe, parasite or virus in culture; assay type: cell-based, Mycobacterium bovis bacille Calmette Guerin; conditions: Mycobacterium tuberculosis variant bovis, 72 h; read-out: % of control, measured in RLUs
# [4] = 72 h, read-out: MIC against Helicobacter pylori, strain 17 (Table 5A)
# [5] = 72 h, read-out: MIC against Helicobacter pylori, strain 19 (Table 5A)
# [6] = 72 h, read-out: MIC against Helicobacter pylori, strain 20 (Table 5A)
# [7] = 72 h, read-out: MIC against Helicobacter pylori, strain 40 (Table 5A)
# [8] = 72 h, read-out: MIC against Helicobacter pylori, strain 43 (Table 5A)
# [9] = 72 h, read-out: MIC against Helicobacter pylori, strain 76 (Table 5A)
# [10] = ATCC43504, 72 h, read-out: MIC against Helicobacter pylori, strain ATCC 43504 (Table 5A)
structure (smiles),measurement,setting,value
O=[N+]([O-])c1cn2c(n1)OC[C@@H](OCc1ccc(F)cc1)C2 [PA-655],MIC,[1],> 5 µg/mL
same,MIC,[2],6.25 µg/mL
COc1ccc(CO[C@@H]2COc3nc([N+](=O)[O-])cn3C2)cc1 [PA-736],MIC,[1],8 µg/mL
same,inhibition at 25 µg/mL,Cryptosporidium parvum; 25 μg/mL,-3.2%
same,inhibition at 50 µg/mL,Cryptosporidium parvum; 50 μg/mL,3%
same,inhibition at 100 µg/mL,Cryptosporidium parvum; 100 μg/mL,45%
same,inhibition at 200 µg/mL,Cryptosporidium parvum; 200 μg/mL,97.7%
O=[N+]([O-])c1cn2c(n1)OC[C@@H](OCc1cccc(OCc3ccccc3)c1)C2 [PA-820],MIC,[1],< 5 µg/mL
same,MIC,[2],3.12 µg/mL
O=[N+]([O-])c1cn2c(n1)OC[C@@H](OCc1ccc(Oc3ccccc3)cc1)C2 [PA-1122],MIC,[1],0.06 µg/mL
same,inhibition at 25 µg/mL,Cryptosporidium parvum; 25 μg/mL,-1.8%
same,inhibition at 50 µg/mL,Cryptosporidium parvum; 50 μg/mL,17.8%
same,inhibition at 100 µg/mL,Cryptosporidium parvum; 100 μg/mL,61%
same,inhibition at 200 µg/mL,Cryptosporidium parvum; 200 μg/mL,83.5%
O=C(N[C@@H]1COc2nc([N+](=O)[O-])cn2C1)c1ccc(OCc2ccccc2)cc1 [PA-1125],MIC,[1],0.06 µg/mL
same,MIC,[2],1.5 µg/mL
same,MIC,Helicobacter pylori; [4],> 25 µg/mL
same,MIC,Helicobacter pylori; [5],0.8 µg/mL
same,MIC,Helicobacter pylori; [6],0.8 µg/mL
same,MIC,Helicobacter pylori; [7],1.5 µg/mL
same,MIC,Helicobacter pylori; [8],1.5 µg/mL
same,MIC,Helicobacter pylori; [9],> 25 µg/mL
same,MIC,Helicobacter pylori; [10],> 25 µg/mL
CCCCCCCCc1ccc(CO[C@@H]2COc3nc([N+](=O)[O-])cn3C2)cc1 [PA-1142],MIC,[1],0.06 µg/mL
same,MIC,[2],1.5 µg/mL
same,MIC,Helicobacter pylori; [4],> 25 µg/mL
same,MIC,Helicobacter pylori; [5],0.4 µg/mL
same,MIC,Helicobacter pylori; [6],0.8 µg/mL
same,MIC,Helicobacter pylori; [7],1.5 µg/mL
same,MIC,Helicobacter pylori; [8],0.4 µg/mL
same,MIC,Helicobacter pylori; [9],3.12 µg/mL
same,MIC,Helicobacter pylori; [10],> 25 µg/mL
O=C(N[C@@H]1COc2nc([N+](=O)[O-])cn2C1)c1ccc(OC(F)(F)F)cc1 [PA-1150],MIC,[1],0.5 µg/mL
same,inhibition at 25 µg/mL,Cryptosporidium parvum; 25 μg/mL,4.8%
same,inhibition at 50 µg/mL,Cryptosporidium parvum; 50 μg/mL,1.7%
same,inhibition at 100 µg/mL,Cryptosporidium parvum; 100 μg/mL,30%
same,inhibition at 200 µg/mL,Cryptosporidium parvum; 200 μg/mL,96.2%
COC(C(=O)N[C@@H]1COc2nc([N+](=O)[O-])cn2C1)(c1ccccc1)C(F)(F)F (stereo partly drawn) [PA-1170],"MIC, column A, 3(S) compounds",[1],0.13
same,Percent Inhibition of C. parvum,Cryptosporidium parvum; 25 μg/mL,-3%
same,Percent Inhibition of C. parvum,Cryptosporidium parvum; 50 μg/mL,-6%
same,Percent Inhibition of C. parvum,Cryptosporidium parvum; 100 μg/mL,16%
same,Percent Inhibition of C. parvum,Cryptosporidium parvum; 200 μg/mL,-3.6%
"O=C(Nc1ccc(Cl)cc1)N[C@@H]1COc2nc([N+](=O)[O-])cn2C1 [PA-1282, 4-Chlorophenyl Urea of 3S 3-Amino-6-nitro-3,4-dihydro-[2-1b]imidazopyran]",MIC,[1],≤ 0.002 µg/mL
O=C(Nc1ccc(OC(F)(F)F)cc1)N[C@@H]1COc2nc([N+](=O)[O-])cn2C1 [PA-1298],MIC,[1],0.015 µg/mL
same,Toxic (given in place of percent inhibition),"Cryptosporidium parvum; 200 μg/mL, HCT-8 monolayers",Toxic
same,inhibition at 25 µg/mL,Cryptosporidium parvum; 25 μg/mL,11.9%
same,inhibition at 50 µg/mL,Cryptosporidium parvum; 50 μg/mL,30%
same,inhibition at 100 µg/mL,Cryptosporidium parvum; 100 μg/mL,85%
[H]/N=C(/N)N[C@H]1[C@H](O)[C@@H](O)[C@H](O[C@@H]2O[C@@H](C)[C@](O)(C=O)[C@H]2O[C@@H]2O[C@@H](CO)[C@H](O)[C@@H](O)[C@@H]2NC)[C@@H](N/C(N)=N\[H])[C@@H]1O [Streptomycin],activity at 0.15 µg/mL,[3],63.5%
same,activity at 0.31 µg/mL,[3],39.8%
same,activity at 0.62 µg/mL,[3],19.6%
same,activity at 1.25 µg/mL,[3],11.7%
same,activity at 2.5 µg/mL,[3],8%
same,activity at 5 µg/mL,[3],4.4%

# Reference: patent US6087358A (priority 1997, dated 2000)
